Laboratory results as given in the kinase profiling compilation of Christmann-Franck et al. (2016).

Assays:
Experiment in all cases: radiometric filter-binding kinase assay, Kinase HotSpot
Conditions in all cases: compound 0.5 µM; ATP 10 µM
[1] = target: PLK3 (human) (UniProt Q9H4B4)
[2] = target: RPS6KA4 KD2 (human) (UniProt O75676)
[3] = target: MKNK2 (human) (UniProt Q9HBH9)
[4] = target: GSK3A (human) (UniProt P49840)
[5] = target: PKN2 (human) (UniProt Q16513)
[6] = target: SRPK3 (human) (UniProt Q9UPE1)
[7] = target: MYLK2 (human) (UniProt Q9H1R3)
[8] = target: CHEK2 (human) (UniProt O96017)
[9] = target: TEK (human) (UniProt Q02763)
[10] = target: PRKACA (human) (UniProt P17612)
[11] = target: MAPK9 (human) (UniProt P45984)
[12] = target: PRKCG (human) (UniProt P05129)
[13] = target: ABL2 (human) (UniProt P42684)
[14] = target: DAPK2 (human) (UniProt Q9UIK4)
[15] = target: MAP3K14 (human) (UniProt Q99558)
[16] = target: AKT3 (human) (UniProt Q9Y243)
[17] = target: EPHA7 (human) (UniProt Q15375)
[18] = target: ALK (human) (UniProt Q9UM73)
[19] = target: ZAP70 (human) (UniProt P43403)
[20] = target: MAP3K8 (human) (UniProt P41279)
[21] = target: RPS6KA1 KD1 KD2 (human) (UniProt Q15418)
[22] = target: HIPK4 (human) (UniProt Q8NE63)
[23] = target: CDK6 CCND3 (human) (UniProt P30281+Q00534)
[24] = target: NUAK2 (human) (UniProt Q9H093)
[25] = target: HCK (human) (UniProt P08631)
[26] = target: NTRK1 (human) (UniProt P04629)
[27] = target: CAMK2A (human) (UniProt Q9UQM7)
[28] = target: MAP3K2 (human) (UniProt Q9Y2U5)
[29] = target: TTK (human) (UniProt P33981)
[30] = target: PTK2 (human) (UniProt Q05397)
[31] = target: ERBB2 (human) (UniProt P04626)
[32] = target: MAP3K7 TAB1 (human) (UniProt O43318+Q15750)
[33] = target: MARK3 (human) (UniProt P27448)
[34] = target: MAPK10 (human) (UniProt P53779)
[35] = target: CDK5 CDK5R1 p25 (human) (UniProt Q00535+Q15078)
[36] = target: RPS6KA2 KD1 KD2 (human) (UniProt Q15349)
[37] = target: EPHB2 (human) (UniProt P29323)
[38] = target: FGR (human) (UniProt P09769)
[39] = target: MLTK (human) (UniProt Q9NYL2)
[40] = target: CSNK1A1 (human) (UniProt P48729)
[41] = target: CDK9 CCNT1 (human) (UniProt P50750+O60563)
Sequence of CDK9 CCNT1 (human) (O60563 whole entry, looked up): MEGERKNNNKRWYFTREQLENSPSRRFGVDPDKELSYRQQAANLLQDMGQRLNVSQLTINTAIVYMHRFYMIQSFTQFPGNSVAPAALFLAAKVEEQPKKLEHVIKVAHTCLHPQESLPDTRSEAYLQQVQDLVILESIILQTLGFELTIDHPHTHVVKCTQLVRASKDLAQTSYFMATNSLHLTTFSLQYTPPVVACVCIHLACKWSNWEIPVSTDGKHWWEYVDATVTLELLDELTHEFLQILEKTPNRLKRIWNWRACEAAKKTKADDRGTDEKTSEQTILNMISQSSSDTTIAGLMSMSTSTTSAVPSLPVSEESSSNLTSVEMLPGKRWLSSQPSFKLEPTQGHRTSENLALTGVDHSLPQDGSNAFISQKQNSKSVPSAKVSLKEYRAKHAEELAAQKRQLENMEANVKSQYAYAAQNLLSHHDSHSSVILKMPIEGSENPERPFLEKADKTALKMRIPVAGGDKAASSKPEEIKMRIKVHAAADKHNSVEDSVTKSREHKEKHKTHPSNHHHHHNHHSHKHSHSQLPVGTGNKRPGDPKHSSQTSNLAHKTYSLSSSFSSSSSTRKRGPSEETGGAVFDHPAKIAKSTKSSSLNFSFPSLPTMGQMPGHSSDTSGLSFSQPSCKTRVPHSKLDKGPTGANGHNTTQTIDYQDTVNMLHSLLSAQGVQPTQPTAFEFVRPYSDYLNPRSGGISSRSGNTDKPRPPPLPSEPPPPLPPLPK
Sequence of CDK9 CCNT1 (human) (P50750 whole entry, looked up): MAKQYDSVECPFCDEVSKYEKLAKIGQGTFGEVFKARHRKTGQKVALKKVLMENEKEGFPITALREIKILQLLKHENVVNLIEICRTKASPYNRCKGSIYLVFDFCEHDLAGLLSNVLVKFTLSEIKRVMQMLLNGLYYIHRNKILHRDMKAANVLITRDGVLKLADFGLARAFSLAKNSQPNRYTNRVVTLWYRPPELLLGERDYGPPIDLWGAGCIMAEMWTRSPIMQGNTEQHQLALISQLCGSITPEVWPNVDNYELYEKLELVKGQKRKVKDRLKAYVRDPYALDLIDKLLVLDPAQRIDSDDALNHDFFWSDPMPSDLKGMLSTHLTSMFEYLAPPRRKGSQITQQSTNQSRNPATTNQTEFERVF

Sequence of CDK6 CCND3 (human) (P30281 whole entry, looked up): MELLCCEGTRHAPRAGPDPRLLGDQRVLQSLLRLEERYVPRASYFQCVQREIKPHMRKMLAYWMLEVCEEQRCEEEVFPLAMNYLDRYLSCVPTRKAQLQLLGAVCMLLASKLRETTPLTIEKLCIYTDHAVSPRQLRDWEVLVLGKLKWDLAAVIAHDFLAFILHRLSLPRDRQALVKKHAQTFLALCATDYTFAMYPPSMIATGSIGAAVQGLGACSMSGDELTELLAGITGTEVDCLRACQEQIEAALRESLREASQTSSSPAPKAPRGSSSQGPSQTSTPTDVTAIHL
Sequence of CDK6 CCND3 (human) (Q00534 whole entry, looked up): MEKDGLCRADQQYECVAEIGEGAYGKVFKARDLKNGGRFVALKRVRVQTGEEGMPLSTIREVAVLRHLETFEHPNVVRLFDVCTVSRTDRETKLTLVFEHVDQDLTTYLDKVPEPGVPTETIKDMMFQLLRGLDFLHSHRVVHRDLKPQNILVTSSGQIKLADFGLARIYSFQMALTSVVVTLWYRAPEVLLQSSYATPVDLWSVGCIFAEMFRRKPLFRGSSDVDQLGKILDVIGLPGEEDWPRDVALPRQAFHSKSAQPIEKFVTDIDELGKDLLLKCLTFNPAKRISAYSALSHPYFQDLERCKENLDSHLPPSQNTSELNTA
Sequence of NTRK1 (human) (P04629 whole entry, looked up): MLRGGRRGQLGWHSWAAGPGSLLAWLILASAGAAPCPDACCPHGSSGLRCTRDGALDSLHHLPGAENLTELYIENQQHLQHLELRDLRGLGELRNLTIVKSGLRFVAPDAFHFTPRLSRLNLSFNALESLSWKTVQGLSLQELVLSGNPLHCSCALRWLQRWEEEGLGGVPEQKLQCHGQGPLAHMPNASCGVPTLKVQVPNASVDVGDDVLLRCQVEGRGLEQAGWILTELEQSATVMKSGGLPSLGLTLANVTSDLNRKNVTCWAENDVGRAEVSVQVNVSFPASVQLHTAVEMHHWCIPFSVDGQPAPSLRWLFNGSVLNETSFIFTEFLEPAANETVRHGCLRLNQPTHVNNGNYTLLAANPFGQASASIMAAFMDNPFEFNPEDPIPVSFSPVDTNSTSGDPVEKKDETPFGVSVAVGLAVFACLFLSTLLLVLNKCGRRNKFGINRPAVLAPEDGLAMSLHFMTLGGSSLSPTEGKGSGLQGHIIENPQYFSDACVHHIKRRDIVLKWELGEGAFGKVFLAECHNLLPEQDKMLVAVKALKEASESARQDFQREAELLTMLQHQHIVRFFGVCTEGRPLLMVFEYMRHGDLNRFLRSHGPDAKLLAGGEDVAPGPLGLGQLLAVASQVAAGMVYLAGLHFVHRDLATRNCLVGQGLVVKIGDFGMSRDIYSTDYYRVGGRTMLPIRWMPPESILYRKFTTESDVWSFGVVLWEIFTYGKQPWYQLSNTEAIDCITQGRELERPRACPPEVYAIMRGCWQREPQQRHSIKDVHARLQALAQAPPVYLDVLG
Sequence of CHEK2 (human) (O96017 whole entry, looked up): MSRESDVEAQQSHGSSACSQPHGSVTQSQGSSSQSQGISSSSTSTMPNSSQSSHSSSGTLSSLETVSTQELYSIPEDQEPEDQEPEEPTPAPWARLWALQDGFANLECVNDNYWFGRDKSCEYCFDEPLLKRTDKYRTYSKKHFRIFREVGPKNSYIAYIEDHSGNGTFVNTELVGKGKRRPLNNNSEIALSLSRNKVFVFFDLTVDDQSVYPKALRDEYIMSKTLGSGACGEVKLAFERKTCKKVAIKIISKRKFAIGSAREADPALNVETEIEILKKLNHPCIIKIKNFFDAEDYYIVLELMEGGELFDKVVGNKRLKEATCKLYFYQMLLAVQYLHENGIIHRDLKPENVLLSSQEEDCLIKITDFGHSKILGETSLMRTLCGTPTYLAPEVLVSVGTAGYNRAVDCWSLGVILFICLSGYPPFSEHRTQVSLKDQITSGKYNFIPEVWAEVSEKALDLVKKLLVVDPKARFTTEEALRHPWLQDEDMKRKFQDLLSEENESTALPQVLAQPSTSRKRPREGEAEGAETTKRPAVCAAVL
Sequence of TEK (human) (Q02763 whole entry, looked up): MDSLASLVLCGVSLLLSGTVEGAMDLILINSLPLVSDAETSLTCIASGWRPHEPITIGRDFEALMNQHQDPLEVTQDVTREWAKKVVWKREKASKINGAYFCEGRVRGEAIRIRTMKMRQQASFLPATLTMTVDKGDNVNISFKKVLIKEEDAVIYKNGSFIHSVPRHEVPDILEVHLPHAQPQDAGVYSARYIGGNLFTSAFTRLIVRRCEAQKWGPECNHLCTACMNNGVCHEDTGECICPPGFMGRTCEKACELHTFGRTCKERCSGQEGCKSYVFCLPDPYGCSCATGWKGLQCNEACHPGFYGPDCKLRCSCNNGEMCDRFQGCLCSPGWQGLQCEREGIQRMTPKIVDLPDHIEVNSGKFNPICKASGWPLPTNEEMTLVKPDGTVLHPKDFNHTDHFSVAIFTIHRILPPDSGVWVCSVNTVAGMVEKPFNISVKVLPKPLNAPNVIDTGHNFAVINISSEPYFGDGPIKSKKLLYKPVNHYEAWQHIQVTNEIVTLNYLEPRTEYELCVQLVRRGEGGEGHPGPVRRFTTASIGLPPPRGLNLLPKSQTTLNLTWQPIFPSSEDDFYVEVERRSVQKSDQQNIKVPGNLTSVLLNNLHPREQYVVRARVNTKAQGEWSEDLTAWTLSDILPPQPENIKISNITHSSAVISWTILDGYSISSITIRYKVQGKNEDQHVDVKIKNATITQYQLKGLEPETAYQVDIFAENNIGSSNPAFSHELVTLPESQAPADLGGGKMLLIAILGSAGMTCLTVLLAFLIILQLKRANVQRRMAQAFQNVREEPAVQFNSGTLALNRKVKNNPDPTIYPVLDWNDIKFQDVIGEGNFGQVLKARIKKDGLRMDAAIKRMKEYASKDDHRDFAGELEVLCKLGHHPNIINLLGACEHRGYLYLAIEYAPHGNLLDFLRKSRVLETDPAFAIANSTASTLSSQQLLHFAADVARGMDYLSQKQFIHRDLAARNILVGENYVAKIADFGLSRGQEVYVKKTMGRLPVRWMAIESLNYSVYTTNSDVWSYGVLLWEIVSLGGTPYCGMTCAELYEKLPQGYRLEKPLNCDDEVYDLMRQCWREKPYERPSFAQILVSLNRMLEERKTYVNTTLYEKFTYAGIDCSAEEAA
Sequence of MAPK9 (human) (P45984 whole entry, looked up): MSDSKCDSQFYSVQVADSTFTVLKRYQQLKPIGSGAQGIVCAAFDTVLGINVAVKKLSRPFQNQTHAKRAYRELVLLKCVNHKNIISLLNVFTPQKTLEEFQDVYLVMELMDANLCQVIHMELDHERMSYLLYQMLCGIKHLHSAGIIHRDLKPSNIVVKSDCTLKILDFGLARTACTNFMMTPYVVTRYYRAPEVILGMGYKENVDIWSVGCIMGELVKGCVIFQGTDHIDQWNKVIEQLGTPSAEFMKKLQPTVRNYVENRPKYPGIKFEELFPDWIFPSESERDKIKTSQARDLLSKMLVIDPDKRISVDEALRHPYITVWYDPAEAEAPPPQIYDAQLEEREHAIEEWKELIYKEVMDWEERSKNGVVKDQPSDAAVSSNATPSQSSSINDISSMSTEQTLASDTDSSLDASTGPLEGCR
Sequence of CSNK1A1 (human) (P48729 whole entry, looked up): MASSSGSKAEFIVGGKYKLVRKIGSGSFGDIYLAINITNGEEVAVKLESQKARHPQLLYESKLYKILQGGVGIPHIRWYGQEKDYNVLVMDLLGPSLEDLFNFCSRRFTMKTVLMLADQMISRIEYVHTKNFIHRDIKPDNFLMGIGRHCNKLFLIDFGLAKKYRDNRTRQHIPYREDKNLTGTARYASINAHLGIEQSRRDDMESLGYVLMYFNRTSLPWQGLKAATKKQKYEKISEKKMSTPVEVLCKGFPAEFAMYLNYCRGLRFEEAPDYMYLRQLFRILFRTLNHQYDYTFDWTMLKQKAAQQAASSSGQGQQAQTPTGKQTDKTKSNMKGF

`O=C1NC(=O)/C(=C\c2ccc3nccnc3c2)S1` gave a residual activity [1] of 97.7%, a residual activity [2] of 115% and a residual activity [3] of 98.2%. It also gave a residual activity [4] of 88.8%, a residual activity [5] of 107% and a residual activity [6] of 91.4%. For the same compound, the residual activity [7] was 97.2%, the residual activity [8] was 90.3% and the residual activity [9] was 89.5%. The residual activity [10] was 97.2%, the residual activity [11] was 96% and the residual activity [12] was 105%. For the same compound, the residual activity [13] was 96.8%, the residual activity [14] was 139% and the residual activity [15] was 101%. The residual activity [16] was 104%, the residual activity [17] was 96.7% and the residual activity [18] was 93.3%. For the same compound, the residual activity [19] was 92.4%, the residual activity [20] was 99.6% and the residual activity [21] was 80.7%. For the same compound, the residual activity [22] was 95%, the residual activity [23] was 95.8% and the residual activity [24] was 76%. It also gave a residual activity [25] of 92.2%, a residual activity [26] of 94.2% and a residual activity [27] of 92.3%. The residual activity [28] was 108%, the residual activity [29] was 102% and the residual activity [30] was 96.5%. For the same compound, the residual activity [31] was 107%, the residual activity [32] was 98.7% and the residual activity [33] was 94.3%. For the same compound, the residual activity [34] was 96%, the residual activity [35] was 83.2% and the residual activity [36] was 85.4%. It also gave a residual activity [37] of 94.7%, a residual activity [38] of 96.8% and a residual activity [39] of 93.6%. The residual activity [40] was 89.2% and the residual activity [41] was 87.7%.
For `COc1cc2ncnc(N3CCN(C(=O)Nc4ccc(Oc5ccccc5)cc4)CC3)c2cc1OC`, the residual activity [1] was 91.8%, the residual activity [2] was 96.2% and the residual activity [3] was 94.2%. For the same compound, the residual activity [4] was 95.8%, the residual activity [5] was 99.1% and the residual activity [6] was 97.3%. It also gave a residual activity [7] of 94.6%, a residual activity [8] of 102% and a residual activity [9] of 92.6%. It also gave a residual activity [10] of 96%, a residual activity [11] of 88.4% and a residual activity [12] of 104%. For the same compound, the residual activity [13] was 92.9%, the residual activity [14] was 95% and the residual activity [15] was 105%. It also gave a residual activity [16] of 97.5%, a residual activity [17] of 96.8% and a residual activity [18] of 101%. For the same compound, the residual activity [19] was 100%, the residual activity [20] was 95.1% and the residual activity [21] was 82%. For the same compound, the residual activity [22] was 75.4%, the residual activity [23] was 100% and the residual activity [24] was 77.4%. For the same compound, the residual activity [25] was 91.7%, the residual activity [26] was 90.6% and the residual activity [27] was 89.9%. For the same compound, the residual activity [28] was 81.2%, the residual activity [29] was 98.3% and the residual activity [30] was 89.4%. For the same compound, the residual activity [31] was 100%, the residual activity [32] was 98.3% and the residual activity [33] was 80.4%. The residual activity [34] was 98.2%, the residual activity [35] was 77.1% and the residual activity [36] was 86.1%. For the same compound, the residual activity [37] was 98.2%, the residual activity [38] was 98.8% and the residual activity [39] was 96.2%. It also gave a residual activity [40] of 108% and a residual activity [41] of 97.3%.
`CCN(CC)CCCCN1c2ccccc2Oc2ccc(Cl)cc21` was tested, and the residual activity [1] was 102%, the residual activity [2] was 80.8% and the residual activity [3] was 111%. It also gave a residual activity [4] of 108%, a residual activity [5] of 72.4% and a residual activity [6] of 104%. The residual activity [7] was 104%, the residual activity [8] was 105% and the residual activity [9] was 103%. The residual activity [10] was 98.4%, the residual activity [11] was 105% and the residual activity [12] was 91.1%. The residual activity [13] was 101%, the residual activity [14] was 99% and the residual activity [15] was 95.6%. The residual activity [16] was 103%, the residual activity [17] was 102% and the residual activity [18] was 106%. It also gave a residual activity [19] of 91.1%, a residual activity [20] of 94.7% and a residual activity [21] of 97.5%. For the same compound, the residual activity [22] was 99.2%, the residual activity [23] was 102% and the residual activity [24] was 90.9%. For the same compound, the residual activity [25] was 105%, the residual activity [26] was 99.8% and the residual activity [27] was 104%. For the same compound, the residual activity [28] was 88.2%, the residual activity [29] was 104% and the residual activity [30] was 108%. The residual activity [31] was 96.6%, the residual activity [32] was 102% and the residual activity [33] was 102%. For the same compound, the residual activity [34] was 104%, the residual activity [35] was 91% and the residual activity [36] was 88%. For the same compound, the residual activity [37] was 107%, the residual activity [38] was 101% and the residual activity [39] was 94.4%. The residual activity [40] was 96.1% and the residual activity [41] was 101%.
For `COc1ccc(OC)c2c(=S)c3ccccc3[nH]c12`, the residual activity [1] was 99.8%, the residual activity [2] was 93.5% and the residual activity [3] was 86.2%. The residual activity [4] was 104%, the residual activity [5] was 105% and the residual activity [6] was 96.8%. For the same compound, the residual activity [7] was 95.7%, the residual activity [8] was 117% and the residual activity [9] was 100%. For the same compound, the residual activity [10] was 97.5%, the residual activity [11] was 102% and the residual activity [12] was 77.6%. The residual activity [13] was 92.5%, the residual activity [14] was 94% and the residual activity [15] was 96%. It also gave a residual activity [16] of 92%, a residual activity [17] of 89.7% and a residual activity [18] of 105%. For the same compound, the residual activity [19] was 100%, the residual activity [20] was 111% and the residual activity [21] was 94.6%. The residual activity [22] was 97.3%, the residual activity [23] was 102% and the residual activity [24] was 98.9%. The residual activity [25] was 95.8%, the residual activity [26] was 87.5% and the residual activity [27] was 100%. The residual activity [28] was 101%, the residual activity [29] was 99.1% and the residual activity [30] was 106%. The residual activity [31] was 93.6%, the residual activity [32] was 98.8% and the residual activity [33] was 96.7%. For the same compound, the residual activity [34] was 108%, the residual activity [35] was 85.4% and the residual activity [36] was 87.4%. The residual activity [37] was 94.9%, the residual activity [38] was 90.8% and the residual activity [39] was 94%. For the same compound, the residual activity [40] was 102% and the residual activity [41] was 98.8%.
Compound `CC(=O)O/N=C1\C(=C2\C(=O)Nc3cc(Br)ccc32)Nc2ccccc21` has a residual activity [1] of 96.2%, a residual activity [2] of 97.6% and a residual activity [3] of 66.9%. For the same compound, the residual activity [4] was 6.49%, the residual activity [5] was 85.4% and the residual activity [6] was 93.9%. It also gave a residual activity [7] of 55%, a residual activity [8] of 75.8% and a residual activity [9] of 106%. It also gave a residual activity [10] of 109%, a residual activity [11] of 90.5% and a residual activity [12] of 103%. The residual activity [13] was 26.4%, the residual activity [14] was 68.7% and the residual activity [15] was 75.7%. The residual activity [16] was 95.1%, the residual activity [17] was 97.9% and the residual activity [18] was 86.7%. For the same compound, the residual activity [19] was 102%, the residual activity [20] was 104% and the residual activity [21] was 69%. It also gave a residual activity [22] of 95.5%, a residual activity [23] of 40.9% and a residual activity [24] of 85.2%. For the same compound, the residual activity [25] was 43.1%, the residual activity [26] was 54.7% and the residual activity [27] was 89.2%. The residual activity [28] was 93.1%, the residual activity [29] was 93.9% and the residual activity [30] was 95.9%. It also gave a residual activity [31] of 114%, a residual activity [32] of 97.4% and a residual activity [33] of 85.4%. The residual activity [34] was 83%, the residual activity [35] was 51.4% and the residual activity [36] was 51%. It also gave a residual activity [37] of 81.4%, a residual activity [38] of 14.8% and a residual activity [39] of 77%. For the same compound, the residual activity [40] was 68.5% and the residual activity [41] was 91.5%.
